Measurements reported in US20240350458A1, “14-3-3 PROTEIN MODULATORS AS ANTITUMOR AGENTS” (priority 2021, published 2024).

Tests used:
[1] = tested on: eight B-cell lymphoma cell lines; test: MTT proliferation assay, panel of eight B-cell lymphoma cell lines; format: cell-based
Protocol: (§1) All the above compounds were tested in vitro for their anticancer activity against a panel of eight B-cell lymphoma cell lines by MTT proliferation assay. The tested cell lines belonging to mantle cell lymphoma (MCL: REC1, Z138), activated B-cell diffuse large B-cell lymphoma (ABC-DLBCL: R11, HBL1, U2932, TMD8), germinal center B-cell diffuse large B-cell lymphoma (GCB-DLBCL: SU-DHL-10, FARAGE) subtypes. In overall, MCL cell lines present Cyclin D1 overexpression, while ABC- and GCB-DLBCL's proliferation is BCR and BCL6/HDACs driven, respectively. At the RNA level, all tested lymphoma cell lines were characterized by an overexpression of 14-3-3 zeta as reported for B-cell lymphomas resistant to chemotherapeutic regimen.

Z138 = test: MTT proliferation assay, B-cell lymphoma cell line; format: cell-based; conditions: Homo sapiens, Z-138; Z138, 72 h of drug incubation
Protocol: as §1

RI1 = test: MTT proliferation assay, B-cell lymphoma cell line; format: cell-based; conditions: Ri-1; RI1, 72 h of drug incubation
Protocol: as §1

FARAGE = test: MTT proliferation assay, B-cell lymphoma cell line; format: cell-based; conditions: 72 h of drug incubation
Protocol: as §1

TMD8 = test: MTT proliferation assay, B-cell lymphoma cell line; format: cell-based; conditions: Homo sapiens; TMD8, 72 h of drug incubation
Protocol: as §1

SUDHL10 = test: MTT proliferation assay, B-cell lymphoma cell line; format: cell-based; conditions: Homo sapiens, SU-DHL10; SUDHL10, 72 h of drug incubation
Protocol: as §1

U2932 = test: MTT proliferation assay, B-cell lymphoma cell line; format: cell-based; conditions: Homo sapiens; U2932, 72 h of drug incubation
Protocol: as §1

HBL1 = test: MTT proliferation assay, B-cell lymphoma cell line; format: cell-based; conditions: HBL1, 72 h of drug incubation
Protocol: as §1

REC1 = test: MTT proliferation assay, B-cell lymphoma cell line; format: cell-based; conditions: Homo sapiens; REC1, 72 h of drug incubation
Protocol: as §1

[2] = tested on: CYP450 (CYP1A2, CYP2C9, CYP2C19, CYP2D6, CYP3A4); test: CYP450 inhibition (ADME-TOX profiling); format: in vitro ADME; conditions: 10 μM
Protocol: To assess the ADME-TOX profile of selected compounds (FC91, FC86, FC85, a full panel of in vitro assays was performed as reported in Runfola et al. [Runfola M, Sestito S, Gul S, Chiellini G, Rapposelli S: Collecting data through high throughput in vitro early toxicity and off-target liability assays to rapidly identify limitations of novel thyromimetics. Data in brief 2020, 29:105206.]. Cytotoxic effects were evaluated on 4 different cell lines (U2OS, hTERT, HEK293, MCF-7) at 24 h and 48 h after treatment with tested compounds. Cardiac toxicity was assessed evaluating the inhibition effect of compounds on the hERG ion-channel, which is responsible of the withdrawn of several drugs in clinical trials. Metabolic interference was evaluated testing inhibitory effects of new compounds on five isoforms of CYP450 (CYP1A2, CYP2C9, CYP2C19, CYP2D6, CYP3A4). To assess off-target liabilities, the inhibitory effects have been assessed against several well-known off-targets. In particular, HDAC4, HDAC6, HDAC8, HDAC9, and SIRT7 were chosen as representatives of an undesirable epigenetic modulation. Moreover, compounds were screened against phosphodiesterase (PDE4C1), known for its role in cell survival and tumorigenesis. […] The data were collected and analyzed in the form of a traffic-light system using criteria shown below.

HCT-116 = test: MTT proliferation assay, colon cancer; format: cell-based; conditions: Homo sapiens
Protocol: (§2) The antiproliferative activity was assessed by MTT proliferation assay (Table III) The anticancer activity was also investigated in a rare and lethal cancer (i.e. anaplastic thyroid cancer) by the use of three ATC-derived cell lines (Sw, FRO, 8505c). Again, the IC50 value after 72 h exposure was in the range of 10 to 50 nM. The same trend was also observed in four melanoma cell lines A2058, M14 (genotype BRAFV600E), SKMEL 197 e MEWO (genotype BRAF wild-type).
Table III IC50 expressed in μM and Emax (at 30 μM) for FC86 after 72 h exposure, were calculated by MTT assay

A2058 = test: Antiproliferative activity, melanoma cell line; format: cell-based; conditions: Homo sapiens; melanoma A2058 (BRAFV600E); read-out: IC50 (95% confidence interval)
Protocol: as §2

M14 = test: Antiproliferative activity, melanoma cell line; format: cell-based; conditions: Homo sapiens; melanoma M14 (BRAFV600E); read-out: IC50 (95% confidence interval)
Protocol: as §2

MEWO = test: Antiproliferative activity, melanoma cell line; format: cell-based; conditions: Homo sapiens; melanoma MEWO (BRAF wild-type); read-out: IC50 (95% confidence interval)
Protocol: as §2

SKMEL 197 = test: Antiproliferative activity, melanoma cell line; format: cell-based; conditions: melanoma SKMEL 197 (BRAF wild-type); read-out: IC50 (95% confidence interval)
Protocol: as §2

Cc1ccc(S(=O)(=O)Nc2ccc3c(c2)/C(=C/c2cccs2)C(=O)N3)cc1 [FC86, N-[(3Z)-2-oxo-3-(thiophene-2-ylmethylidene)-2,3-dihydro-1H-indol-5-yl]-4-methylbenzenesulfonamide]
IC50 ([1]; B-cell, read-out: IC50 in all eight lymphoma cell lines): < 1000 nM | IC50 in eight different lymphoma cell lines ([1]; eight different lymphoma cell lines): nanomolar range | IC50 (Z138): 25 nM | IC50 (RI1): 25 nM | IC50 (FARAGE): 15 nM | IC50 (TMD8): 20 nM | IC50 (SUDHL10): 25 nM | IC50 (U2932): 20 nM | IC50 (HBL1): 25 nM | IC50 (REC1): 10 nM | inhibitory effect on CYP450 isoforms [2]: did not show inhibitory effect | Emax at 30 µM (HCT-116; Colon HCT-116, 30 μM, 72 h): 62% | IC50 (HCT-116; Colon HCT-116, 72 h exposure): 1600 nM | IC50 (A2058): 28.6 nM | IC50 (M14): 14.1 nM | IC50 (MEWO): 57 nM | IC50 (SKMEL 197): 20.7 nM
